In assay [1] the target is T1, Savinase (Lederbergia lenta, UniProt P29600).
T1 sequence (P29600 1-269): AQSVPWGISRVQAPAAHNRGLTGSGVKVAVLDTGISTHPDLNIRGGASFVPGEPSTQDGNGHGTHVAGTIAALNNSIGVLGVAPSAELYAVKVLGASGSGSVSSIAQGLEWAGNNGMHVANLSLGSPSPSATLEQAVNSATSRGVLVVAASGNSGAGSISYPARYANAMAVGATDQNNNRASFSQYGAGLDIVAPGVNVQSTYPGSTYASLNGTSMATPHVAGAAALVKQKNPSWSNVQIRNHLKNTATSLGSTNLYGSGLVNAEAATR
The assay can be described thus: Storage Stability Test in Liquid Detergent (Detergent base, US-type), Example 3. The format is biochemical. The arrangement: purchased Novo Nordisk A/S. The following applies: for Improvement Factor (IFI): relative to Boric Acid, US-type detergent, 1% w/w Savinase (14 KNPU/g), stabilizer 5 mmole/kg (boric acid 160 mmole/kg), 0, 3, 7 and 14 days at 30° C. The protocol:
(§1) a) Storage Stability Test in Liquid Detergent: Enzyme(s) and stabilizer are added to a liquid detergent formulation and stored at well defined conditions. The enzyme activity of each enzyme is determined as a function of time, e.g. after 0, 3, 7 and 14 days.
(§2) To calculate the inhibition efficiency from the storage stability date a reaction mechanism is proposed.
(§3) From these reactions three coupled differential equations are derived describing the deactivation of P, L and PI. The reaction rate constants are derived from storage stability data by the use of a parameter estimation method (Gauss-Newton with the Levenberg modification). The storage stability data give the concentration of (P+PI) and L as a function of time.
(§4) Reaction IV is excluded from the system to reduce the number of parameters thereby describing the stability of the inhibited enzyme by only one reaction rate constant (from equation V).
(§5) In all experiments there is a large surplus of inhibitor molecules compared to protease molecules, i.e. a constant concentration of inhibitor (corresponding to the added amount of inhibitor) is a reasonable assumption.
(§6) An improvement factor is thus derived: [formula] IFI measures the inhibition efficiency given by the inhibition constants KI from reaction III.
Phenyl boronic acid derivatives were also tested in storage stability tests in liquid detergents using the method described previously under the following conditions: […]

In a further assay the test system is subtilisin. The following applies: Keller et al, 1991; cited from earlier work.
Assay [2] has as its target T1, Savinase. The following applies: US-type detergent; 1% w/w Savinase (14 KNPU/g); 5 mmole/kg (boric acid 160 mmole/kg); 0, 2, 7 and 14 days at 30° C. The procedure: as §1, §2, §3, §4, §5, §6
The target in assay [3] is T1, Savinase. In words: Determination of Ki: inhibition of Savinase (SAAPFpNA substrate). Format: biochemical. The arrangement: purchased Novo Nordisk A/S. The following applies: 0.1M Tris-HCl pH 8.6, 25° C. An excerpt:
b) Determination of Ki : The inhibition constant Ki may be determined by using standard methods, for reference see Keller et al, Biochem. Biophys. Res. Com. 176, 1991, pp.401-405; J. Bieth in Bayer-Symposium "Proteinase Inhibitors", pp. 463-469, Springer-Verlag, 1974 and Lone Kierstein Hansen in "Determination of Specific Activities of Selected Detergent Proteases using Protease Activity, Molecular Weights, Kinetic Parameters and Inhibition Kinetics", PhD-report, Novo Nordisk A/S and University of Copenhagen, 1991.
The inhibition constant Ki for the inhibition of Savinase™ (available from Novo Nordisk A/S) was determined using standard methods under the following conditions: […]
The initial rate of substrate hydrolysis was determined at nine substrate concentrations in the range of 0.01 to 2 mM using a Cobas Fara automated spectrophotometer. The kinetic parameters Vmax and Km were determined using ENZFITTER (a non-linear regression data analysis program).
kcat was calculated from the equation Vmax =kcat X [Eo ]. The concentration of active enzyme [Eo ] was determined by active site titration using tight-binding protein proteinase inhibitors. The inhibition constant Ki was calculated from plots of Km /kcat as a function of the concentration of inhibitor. The inhibitors were assumed to be 100% pure and the molar concentrations were determined using weighing numbers and molecular weights.

Assay [4] has as its target T1, Savinase. The assay can be described thus: Storage Stability Test in a Commercial Detergent (Omo Micro), Example 4. The format is biochemical. Further details: purchased Novo Nordisk A/S. The following applies: 1.33 mM stabilizer (boric acid 160 mM), 1% w/w Savinase (8 KNPU/g), 1% w/w Lipolase (100 KLU/g), 0, 7, 15, and 21 days at 40° C. The protocol:
An improvement factor is thus derived: [formula]
The inhibition effectiveness IFI of 4-formyl-phenyl-boronic acid was also found in a commercial detergent Omo Micro.
Omo Micro was bought in a Danish supermarket. The enzymes were inactivated at 90° C. (overnight).
The following dosages in the detergent were used:
4-Formyl-phenyl-boronic acid: 1.33 mM, or
Protease: 1% w/w Savinase (8 KNPU/g), and
Lipase: 1% w/w Lipolase (100 KLU/g).
Storage: 0, 7, 15, and 21 days at 40° C.

The next assay relates to proteolytic enzymes. The following applies: background statement; WO 92/19707 for aryl boronic acids; cited from earlier work.

Data on eight molecules can be found in patent US5972873A, “4-substituted-phenyl-boronic acids as enzyme stabilizers” (Novo Nordisk A/S, priority 1995, dated 1999).

Consider `O=Cc1ccccc1B(O)O` [2-formyl-phenyl-boronic acid], for which the “Improvement Factor (IFI)” value at Savinase [1] is 36.
Turning to `OB(O)c1cc(Cl)cc(Cl)c1` [3,5-dichlorophenylboronic acid], in the assay with subtilisin, the “capacity as subtilisin inhibitor” value is “particularly effective”.
As for `O=Cc1cccc(B(O)O)c1` [3-formyl-phenyl-boronic acid], the “Improvement Factor (IFI)” value on Savinase [1] was found to be 230.
In the case of `O=C(O)c1ccc(B(O)O)cc1` [4-Carboxybenzeneboronic acid], the IFI at Savinase [2] came to 22.
As for `O=Cc1ccc(B(O)O)cc1` [4-formyl-phenyl-boronic acid, 4-Formyl-phenyl-boronic acid], at Savinase [3], the Ki stood at 300 µM. Moreover, the “inhibition effectiveness IFI” value against Savinase [4] is recorded as 2500. Besides, on Savinase [1] (calculated on molar basis), the “storage stability properties versus 2-formyl-phenyl-boronic acid” value is on record as “at least 25 times better”, the “storage stability properties versus 3-formyl-phenyl-boronic acid” value was “at least four times better” and the “storage stability properties versus acetamidophenyl boronic acid” value is listed as “at least three times better”. Also, on Savinase [1], the “Improvement Factor (IFI)” value was 1000.
On to `OB(O)O` [Boric acid], for which, in the assay on proteolytic enzymes, the “inhibition of proteolytic enzymes” value is listed as “reversibly inhibit proteolytic enzymes”.
On to `CC(=O)Nc1cccc(B(O)O)c1` [acetamidophenyl boronic acid], for which, at Savinase [3], the Ki stood at 1000 µM. Also, the “Improvement Factor (IFI)” value at Savinase [1] is given as 300.
Consider `CB(O)O` [methylboronic acid], for which the “capacity as subtilisin inhibitor” value in the assay on subtilisin is reported as “poorest inhibitor”.
